From US11684067B2, “Generation of peroxyformic acid through polyhydric alcohol formate” (priority 2014, dated 2023) come the findings set out here.

Structures can show the parent of a compound that is named as a salt.

The subject of series [1] is Aspergillus brasiliensis ATCC 16404. In words: Fungicidal activity of ester PFA, dirty conditions (Example 20). The class given is cell-based. The conditions noted are these: 35°C, 5 minutes. The source says:
Various Bacillus and Aspergillus pathogens were used to evaluate the micro efficacy of ester PFA generated according to methods of the present invention.

Series [2] has as its system Aspergillus brasiliensis ATCC 16403. In words: Anti-fungal suspension test of Ester PFA, dirty conditions. The class given is cell-based. The source says: Aspergillus brasilensis ATCC 16403 was used to evaluate the efficacy in treatment with performic acid compositions according to the conditions shown in Table 18.
A further series deals with pseudomonas. Description: Suspension test in cooling tower water samples. The settings on record: 5 ppm Ester PFA / 6.13 ppm POAA, 10 minutes. The format is cell-based. On the procedure: The antimicrobial efficacy of peroxyformic acid generated through the perhydrolysis of glycerol formatted were tested against pseudomonas in cooling tower samples at both 25° C. and 37° C., along with the peroxyacetic acid (POAA) controls, and the results are summarized in Table 6 and 7 below.

In series [3] the test system is Nalidixic acid resistant E. coli O157:H7. Description: Reduction of E. coli on raw beef brisket, dip treatment. The settings on record: 10 minutes dip, ambient, 220 ppm POAA / 180 ppm PFA / 50 ppm LAS per formula (Table 15). The format is cell-based. On the procedure:
Nalidixic acid resistant E. coli O157:H7 was used to evaluate the efficacy in treatment with performic acid composition on raw beef brisket according to the conditions shown in Table 14.
The generation of PFA from the perhydrolysis of glycerol formates, PFA formulations, POAA formations and controls were evaluated as shown in Table 15.

The nature of series [4]: Perhydrolysis of esters in H2O2 solution, peracid by iodometric titration. The class given is physicochemical. The settings on record: 50 ppm ester; for peracid generation under the tested conditions: 150 ppm H2O2, pH 8.5; for Peracid: 150 ppm H2O2, pH 8.5, ambient. The method, then: [drawing 8] were added to 150 ppm H2O2 solution of pH 8.5 (DI water adjusted by adding 3.0 g of NaHCO3 per liter of water and then adjusted pH with Na2CO3) respectively under ambient conditions. The concentration of peroxycarboxylic acids were measured by an iodometric titration method.
Fifty (50) ppm various formic acid esters were added to 150 ppm H2O2 solution of pH 8.5 (DI water adjusted by adding 3.0 g of NaHCO3 per liter of water and then adjusted pH with Na2CO3) respectively under ambient conditions. The concentration of peroxycarboxylic acids were measured by an iodometric titration method. […]

[5] abbreviates: Peninsula Cooling Water pH 8.81, 25°C.
The mark [6] stands for this setting: Peninsula Cooling Water pH 8.81, 37°C.

For `O=COO` [Ester PFA, peroxyformic acid], the “Log10 Growth” value in series [1] (Table 23: 300 ppm PFA) is on record as 3.87 Log10; in series [1] (Table 23: 350 ppm PFA) it was 2.23 Log10; in series [2] (320 ppm PFA, 20°C, 5 minutes), 3.27 Log10; in series [2] (320 ppm PFA, 20°C, 10 minutes), 2.22 Log10; in series [2] (320 ppm PFA, 30 C., 5 minutes), 2.19 Log10; in series [2] (320 ppm PFA, 30 C., 10 minutes) it was less than 2.15 Log10. Further, the “Log10 Growth” value in series [2] (400 ppm PFA, 20°C, 5 minutes) is listed as less than 2.15 Log10; in series [2] (400 ppm PFA, 20°C, 10 minutes) it was less than 2.15 Log10; in series [2] (400 ppm PFA, 30 C., 5 minutes), 1.48 Log10; in series [2] (400 ppm PFA, 30 C., 10 minutes), less than 2.15 Log10. Also, the “Log10 Reduction” value in series [1] (Table 23: 300 ppm PFA) was 2.26 Log10; in series [1] (Table 23: 350 ppm PFA), 3.91 Log10; in series [2] (320 ppm PFA, 20°C, 5 minutes), 2.57 Log10; in series [2] (320 ppm PFA, 20°C, 10 minutes), 3.61 Log10; in series [2] (320 ppm PFA, 30 C., 5 minutes), 3.64 Log10; in series [2] (320 ppm PFA, 30 C., 10 minutes), more than 3.68 Log10. Besides, the “Log10 Reduction” value is more than 3.68 Log10 in series [2] (400 ppm PFA, 20°C, 5 minutes); more than 3.68 Log10 in series [2] (400 ppm PFA, 20°C, 10 minutes); 4.36 Log10 in series [2] (400 ppm PFA, 30 C., 5 minutes); more than 3.68 Log10 in series [2] (400 ppm PFA, 30 C., 10 minutes); 2.93 Log10 in the series on pseudomonas (BP Cooling Water pH 8.74, 25°C); 2.42 Log10 in the series with pseudomonas (BP Cooling Water pH 8.74, 37°C). Moreover, the “Log10 Reduction” value in the series with pseudomonas (setting [5]) is recorded as 2.42 Log10; in the series with pseudomonas (setting [6]) it was 2.40 Log10. Also, the “Avg. Log10 Growth” value with pseudomonas (BP Cooling Water pH 8.74, 25°C) is on record as 2.74 Log10; in the series with pseudomonas (BP Cooling Water pH 8.74, 37°C) it was 2.68 Log10; in the series with pseudomonas (setting [5]), 2.76 Log10; with pseudomonas (setting [6]), 2.70 Log10. In addition, the “Average Log CFU/cm2” value in series [3] was 2.74 Log CFU/cm2. In addition, the “Log reduction” value in series [3] amounted to 1.30 Log.
`CCOC=O` [Ethyl formate]: the “peracid generation under the tested conditions” value in series [4] was “no detectable peracid”. Also, the Peracid in series [4] (1 min), in series [4] (5 min), in series [4] (10 min), in series [4] (15 min), in series [4] (25 min) and in series [4] (35 min) was 0.00 ppm throughout.
For `CC(=O)OCC(COC(C)=O)OC(C)=O` [Triacetin], in series [4], the “peracid generation under the tested conditions” value is “no detectable peracid”. The Peracid in series [4] (1 min), in series [4] (5 min), in series [4] (10 min), in series [4] (15 min), in series [4] (25 min) and in series [4] (35 min) was 0.00 ppm in each case.
